In BindingDB's records for doi:10.1021/jm960450v (National Cancer Institute-Bethesda, 1997):

Experiments:
[1] = target: T1, Integrase (Human immunodeficiency virus 1, UniProt Q7ZJM1); experiment: Integration of DNA by HIV -1 integrase
[2] = target: T1, Integrase; experiment: Inhibitory activity against 3'-processing of DNA byHIV-1 integrase
[3] = target: T1, Integrase; experiment: Inhibitory activity against 3'-processing of DNA by HIV-1 integrase

T1 sequence (Q7ZJM1 whole entry): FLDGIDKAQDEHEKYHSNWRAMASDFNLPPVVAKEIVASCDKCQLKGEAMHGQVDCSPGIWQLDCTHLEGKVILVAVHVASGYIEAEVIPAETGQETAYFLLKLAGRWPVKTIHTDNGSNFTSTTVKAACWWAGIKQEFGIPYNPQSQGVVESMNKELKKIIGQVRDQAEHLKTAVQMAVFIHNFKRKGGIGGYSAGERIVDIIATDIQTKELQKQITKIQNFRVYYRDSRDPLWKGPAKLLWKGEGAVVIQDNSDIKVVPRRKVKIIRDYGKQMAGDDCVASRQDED

SMILES | IC50 [1] [µM] | IC50 [2] [µM] | IC50 [3] [µM]
O=c1oc2ccccc2c(O)c1C(c1cc(OCc2ccccc2)cc(OCc2ccccc2)c1)c1c(O)c2ccccc2oc1=O | 12 | – | –
O=c1oc2ccccc2c(O)c1C(c1ccc([N+](=O)[O-])cc1)c1c(O)c2ccccc2oc1=O | – | 50 | –
O=c1oc2ccccc2c(O)c1C(c1ccc(-c2ccccc2)cc1)c1c(O)c2ccccc2oc1=O | – | – | 14
O=c1oc2ccccc2c(O)c1C(c1ccc2ccccc2c1)c1c(O)c2ccccc2oc1=O | 16 | – | 20
CN(C)c1ccc(C(c2c(O)c3ccccc3oc2=O)c2c(O)c3ccccc3oc2=O)cc1 | 50 | 88 | 100
O=c1oc2ccccc2c(O)c1C(c1ccco1)c1c(O)c2ccccc2oc1=O | – | – | 34
O=c1oc2ccccc2c(O)c1C(c1cccs1)c1c(O)c2ccccc2oc1=O | – | – | 100
O=c1oc2ccccc2c(O)c1C(c1ccc(OCc2ccccc2)cc1)c1c(O)c2ccccc2oc1=O [3-[4-benzyloxyphenyl(4-hydroxy-2-oxo-2H-3-chromenyl)methyl]-4-hydroxy-2H-2-chromenone] | – | – | 19
O=c1oc2ccccc2c(O)c1C(c1ccc2c(c1)Cc1ccccc1-2)c1c(O)c2ccccc2oc1=O [3-[9H-2-fluorenyl(4-hydroxy-2-oxo-2H-3-chromenyl)methyl]-4-hydroxy-2H-2-chromenone] | – | – | 11
O=c1oc2ccccc2c(O)c1Cc1cccc(Cc2c(O)c3ccccc3oc2=O)c1 [4-hydroxy-3-[3-(4-hydroxy-2-oxo-2H-3-chromenylmethyl)benzyl]-2H-2-chromenone] | – | – | 34
